Measured values published in US4145430A, “Beta-lactam compounds, preparation and use” (Beecham Group Limited, priority 1977, dated 1979).

Legend:
[1] = tested on: Candida albicans BRL 1003; assay: Antifungal activity, paper tape on seeded blood agar base plate; format: cell-based; conditions: BRL1003; loading of 250 μg on paper tape, Candida albicans BRL 1003, 28° C., 24 hours; read-out: zone of inhibition diameter
Description: The Z-isomer is able to inhibit the growth of Candida albicans. Thus, a loading of 250 μg of the Z-isomer on a paper tape which was contacted with a blood agar base plate seeded with Candida albicans BRL 1003 and incubated at 28° C. for 24 hours produced a zone of inhibition with diameter 22.1 mm.

[2] = target: T1, β-lactamase from E. coli JT4 (Escherichia coli, UniProt P62593); assay: β-lactamase inhibition I50; format: biochemical
T1 construct: host or cells: E. coli JT4 (the producing strain)
Description: (§1) The I50 values obtained for the product of this example against certain common gram positive and gram negative bacteria were as follows:
(§2) The compound from Example 1 was a potent inhibitor of β-lactamase enzymes as illustrated in the following Table. I50 values were determined using the process described in Belgium Pat. No. 827,926.

[3] = target: T2, β-lactamase from Enterobacter cloacae P99 (Enterobacter cloacae, UniProt P05364); assay: β-lactamase inhibition I50; format: biochemical
T2 construct: host or cells: Enterobacter cloacae P99 (the producing strain)
Description: as §1, §2

[4] = target: β-lactamase from Proteus mirabilis C889; assay: β-lactamase inhibition I50; format: biochemical
Description: as §1, §2

[5] = target: T3, β-lactamase from Ps. aeruginosa Dalgleish (Pseudomonas aeruginosa, UniProt P16897); assay: β-lactamase inhibition I50; format: biochemical
T3 construct: host or cells: Pseudomonas aeruginosa Dalgleish (the producing strain)
Description: as §2

[6] = target: β-lactamase from Pseudomonas aeruginosa A; assay: β-lactamase inhibition I50; format: biochemical
Description: as §2

[7] = Stability when free of solvent; format: physicochemical
Description: The compound of the formula (V) tends to polymerise when free of solvent at room temperature so that it must either be stored in solution (optionally with hydroquinone) or at a low temperature. Preferably the compound of the formula (V) is used shortly after its preparation.
For determination of spectroscopic and biological properties aliquots of the toluene solution were treated in a manner similar to that described above for measurement of the nmr spectrum. The title compound was characterised by the following spectroscopic properties. λmax (EtOH): 277.5 nm. .nu.max (CHCl3): 1797 (β-lactam C= O ), 1670 and 1640 (C=C)cm^-1. δ (CDCl3): 3.36 (d, J 17Hz, 1H, C(6)H), 3.63 (dd, J 17, 2Hz, 1H, C(6)H), 5.22 (dd, J 10.5, 1.0Hz, 1H, olefinic H), 5.49 (dd, J 16, 1.0Hz, 1H, olefinic H), 5.80 (s, 2H, C(5)H and C(2)H), 6.10 (dd, J 16, 10.5Hz, 1H, olefinic H).

[8] = target: lactamase from Ps. aeruginosa; assay: β-lactamase inhibition I50; format: biochemical; set-up: unit not given here
Text: The I50 values obtained for the product of this example against certain common gram positive and gram negative bacteria were as follows: […]

T1 sequence (P62593 24-286 limits assumed): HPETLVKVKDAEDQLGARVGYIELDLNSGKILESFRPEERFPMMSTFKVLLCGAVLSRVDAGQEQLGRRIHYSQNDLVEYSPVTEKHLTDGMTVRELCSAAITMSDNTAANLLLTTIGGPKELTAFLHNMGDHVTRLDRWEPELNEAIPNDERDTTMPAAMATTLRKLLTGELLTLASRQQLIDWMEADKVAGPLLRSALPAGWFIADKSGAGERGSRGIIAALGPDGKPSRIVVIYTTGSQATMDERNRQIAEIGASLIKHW
T2 sequence (P05364 21-381): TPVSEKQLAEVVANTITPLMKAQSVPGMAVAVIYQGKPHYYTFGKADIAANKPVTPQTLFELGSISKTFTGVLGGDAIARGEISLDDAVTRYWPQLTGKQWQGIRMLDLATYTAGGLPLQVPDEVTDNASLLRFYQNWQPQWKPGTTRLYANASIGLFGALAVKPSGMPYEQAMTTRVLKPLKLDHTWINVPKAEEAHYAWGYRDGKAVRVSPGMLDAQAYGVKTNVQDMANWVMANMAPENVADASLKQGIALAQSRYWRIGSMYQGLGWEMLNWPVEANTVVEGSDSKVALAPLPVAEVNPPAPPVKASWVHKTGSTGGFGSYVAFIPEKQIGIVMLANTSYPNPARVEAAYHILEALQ
T3 sequence (P16897 18-288): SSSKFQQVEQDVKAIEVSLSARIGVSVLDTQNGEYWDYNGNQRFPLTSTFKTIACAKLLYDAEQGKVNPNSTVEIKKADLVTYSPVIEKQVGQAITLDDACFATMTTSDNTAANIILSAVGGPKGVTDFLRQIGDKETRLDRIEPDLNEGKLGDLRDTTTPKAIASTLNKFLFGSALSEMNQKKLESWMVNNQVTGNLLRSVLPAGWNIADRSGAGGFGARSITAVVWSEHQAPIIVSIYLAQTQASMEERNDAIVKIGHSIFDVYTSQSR

Row | SMILES | zone of inhibition at 250 µg/disc [1] | IC50 [2] | IC50 ([3]; β-lactamase from Enterobacter cloacae P99) | I50 [4] | IC50 [5] | I50 [6] | stability when free of solvent [7] | IC50 ([3]; lactamase from Enterobacter cloacae P 99) | I50 [8]
1 | C/C=C1/CN2C(=O)C[C@H]2O1 [Z-isomer, Z-(5R)-3-ethylidene-4-oxa-1-azabicyclo[3.2.0]heptan-7-one] | 22.1 mm |  |  |  |  |  |  |  | 
2 | C=CC1=CN2C(=O)C[C@H]2O1 [Example 1, (5R)-7-oxo-3-vinyl-4-oxa-1-azabicyclo[3.2.0]hept-2-ene] |  | 408 nM | 190 nM | 0.058 µg/mL | 292 nM | 0.06 µg/mL | readily polymerises |  | 
3 | CC=C1CN2C(=O)C[C@H]2O1 [Example 4, (5R)-3-ethylidene-4-oxa-1-azabicyclo[3.2.0]heptan-7-one] |  | 1580 nM |  | 1.6 µg/mL |  |  |  | 2010 nM | 0.86
